21 compounds from patent publication US8362012B2, “Benzoxazine benzimidazole derivative, a pharmaceutical composition comprising the same, and a use thereof” (Daewoong Pharmaceutical Co., Ltd., priority 2008, dated 2013) can be followed below.

A value given as a limit tells only on which side of the number the result lay.

Test [1] deals with T1, human vanilloid-1 (hVR-1) in hVR-1-HEK293 cell line (Homo sapiens, UniProt Q8NER1).
T1 construct: expressed in transfected cells; host or cells: HEK293 Tet-on strain, doxycycline-induced
Nature of the test: Inhibitory effect on calcium influx via a vanilloid receptor (capsaicin-stimulated, Fluo-3/AM). It counts as cell-based. The note with it: hVR-1-HEK293 cells, 1 μM of capsaicin, compounds 0.015˜2000 nM; read-out: I.A. (inhibitory activity), IC50 on intracellular calcium influx. The method, then: The cell line can modulate the expression of VR-1, depending on whether doxycycline, a derivative of tetracycline, is present or not. […] Specifically, hVR-1-HEK293 cells were cultured in a T75 flask to about 80% confluency, separated from the flask by treating with trypsin solution, and then collected by centrifugation. The cells were suspended in a medium containing 1 μg/mL of doxycycline, and the resulting suspension was diluted to a concentration of 2˜4×10^5 cells/mL […], of the cell suspension was placed in each well of a 96-well black plate. The cells were cultured in 5% CO2 incubator at 37° C. for 2 days, and used for the following procedure. […] The cells prepared in 1) above were cultured at 37° C. for 90 min in a solution containing Fluo-3/AM, a fluorescent dye, as a calcium indicator so that the fluorescent dye was permeated into the cells. […] In order to stimulate calcium influx through a vanilloid receptor, the cells were treated with 1 μM of capsaicin. […] The obtained data were input to the Hill equation represented by the following formula I and the values were analyzed: Intracellular calcium influx= [(fluorescent intensity of experimental group−fluorescent intensity of background)/(fluorescent intensity of positive control−fluorescent intensity of background)]*100 [Formula I] The inhibitory activities were evaluated from the obtained intracellular calcium influx values according to the following criteria.

Another test has as its system ICR male mice. The test is described as follows: Phenyl-p-quinone (PBQ)-induced writhing experiment using mice. It counts as in vivo. Particulars: orally administered, PBQ (0.02%) intraperitoneally after 1 hour, writhing counted for 10 min. How it is done: In order to evaluate the effect on pain of the compounds prepared in the Examples, behaviors such as twisting or writhing of body resulted from pain were verified by the phenyl-p-quinone (PBQ)-induced writhing experiment using mice. 5 week-old ICR male mice were used as experimental animals and PBQ (0.02%), as a chemical stimulator. The suspensions of 20 mg of the compounds of the present invention and an excipient such as Na—CMC (sodium carboxymethyl cellulose) in 10 mL of saline were used as test compounds. The test compounds were orally administered to the mice and after 1 hour, PBQ was intraperitoneally administrated in an amount of 10 mL per kg of body weight. Also, as a control group, equivalent amounts of BCTC were administered. The writhing number of each mouse was measured for 10 min starting from 5 min after the administration, and the analgesic effect was verified by counting the reduced number compared to the control group administered with only excipient and calculating the % inhibitory rate according to the following Formula 2. % inhibition rate=(writhing # of control group−writhing # of test group)/writhing # of control group×100 [Formula 2]

T1 sequence (Q8NER1 whole entry): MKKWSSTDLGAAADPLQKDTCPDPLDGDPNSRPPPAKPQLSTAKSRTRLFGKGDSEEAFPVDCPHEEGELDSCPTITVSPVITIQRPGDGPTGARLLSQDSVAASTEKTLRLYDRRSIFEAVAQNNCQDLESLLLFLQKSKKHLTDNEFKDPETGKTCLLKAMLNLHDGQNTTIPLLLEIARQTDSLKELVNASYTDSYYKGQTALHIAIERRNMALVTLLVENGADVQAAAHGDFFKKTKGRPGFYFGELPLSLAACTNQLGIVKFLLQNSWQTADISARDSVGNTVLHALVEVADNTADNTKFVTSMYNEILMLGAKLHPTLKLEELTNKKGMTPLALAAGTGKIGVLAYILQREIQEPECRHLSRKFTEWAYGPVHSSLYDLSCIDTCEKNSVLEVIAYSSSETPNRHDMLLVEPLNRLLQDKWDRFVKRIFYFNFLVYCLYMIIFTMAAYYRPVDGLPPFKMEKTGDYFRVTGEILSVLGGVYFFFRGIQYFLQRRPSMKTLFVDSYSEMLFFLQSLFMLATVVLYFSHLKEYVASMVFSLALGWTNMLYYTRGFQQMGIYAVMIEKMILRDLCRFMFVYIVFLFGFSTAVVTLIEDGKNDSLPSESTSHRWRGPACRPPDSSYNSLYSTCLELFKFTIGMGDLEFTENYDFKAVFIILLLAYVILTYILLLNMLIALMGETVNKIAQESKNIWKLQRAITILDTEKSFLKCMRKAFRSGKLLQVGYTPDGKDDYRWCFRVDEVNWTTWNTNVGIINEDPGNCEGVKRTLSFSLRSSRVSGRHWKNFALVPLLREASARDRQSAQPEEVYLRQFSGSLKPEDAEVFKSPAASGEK

For the compound `Cc1ccc(N2CCOc3c(-c4nc5cc(Cl)c(Cl)cc5[nH]4)cccc32)nc1` [Example 28, 8-(5,6-dichloro-1H-benzimidazol-2-yl)-4-(5-methyl-pyridin-2-yl)-3,4-dihydro-2H-benzo[1,4]oxazine], the 50% inhibitory concentration (IC50) (usually the concentration at which inhibition is half-maximal) in test [1] lay in the range of 20 to 100 nM. Besides, the “I.A. (inhibitory activity), % inhibition rate of writhing” value with ICR male mice was “+ (<20%)”.
`Cc1ccc(N2CCOc3c(-c4nc5c(Br)cc(C(F)(F)F)cc5[nH]4)cccc32)nc1` [Example 31, 8-(4-bromo-6-trifluoromethyl-1H-benzimidazol-2-yl)-4-(5-methyl-pyridin-2-yl)-3,4-dihydro-2H-benzo[1,4]oxazine]: the IC50 in test [1] fell in the range of 20 to 100 nM. For the same compound, the “I.A. (inhibitory activity), % inhibition rate of writhing” value in the test with ICR male mice was “++ (20˜50%)”.
For `Cc1ccc(N2CCOc3c(-c4nc5c(F)cc(Br)cc5[nH]4)cccc32)nc1` [Example 33, 8-(6-bromo-4-fluoro-1H-benzimidazol-2-yl)-4-(5-methyl-pyridin-2-yl)-3,4-dihydro-2H-benzo[1,4]oxazine] the same measures were 20 to 100 nM and “+++ (51-80%)”.
The like results for `Cc1ccc(N2c3cccc(-c4nc5ccc(C(C)(C)C)cc5[nH]4)c3OC[C@@H]2CO)nc1` [Example 34, [(S)-8-(6-tert-butyl-1H-benzimidazol-2-yl)-4-(5-methyl-pyridin-2-yl)-3,4-dihydro-2H-benzo[1,4]oxazin-3-yl]-methanol] were, in that order, < 20 nM and “+ (<20%)”.
For `Cc1ccc(N2c3cccc(-c4nc5ccc(C(F)(F)F)cc5[nH]4)c3OC[C@@H]2CO)nc1` [Example 35, [(S)-4-(5-methyl-pyridin-2-yl)-8-(6-trifluoromethyl-1H-benzimidazol-2-yl)-3,4-dihydro-2H-benzo[1,4]oxazin-3-yl]-methanol] the same measures were < 20 nM and “+++ (51-80%)”.
With `Cc1ccc(N2c3cccc(-c4nc5ccc(Br)cc5[nH]4)c3OC[C@@H]2CO)nc1` [Example 36, [(S)-8-(6-bromo-1H-benzimidazol-2-yl)-4-(5-methyl-pyridin-2-yl)-3,4-dihydro-2H-benzo[1,4]oxazin-3-yl]-methanol], the IC50 in test [1] is < 20 nM. Further, the “I.A. (inhibitory activity), % inhibition rate of writhing” value in the test with ICR male mice is “+++ (51-80%)”.
For the compound `Cc1ccc(N2c3cccc(-c4nc5ccc(Cl)cc5[nH]4)c3OC[C@@H]2CO)nc1` [Example 37, [(S)-8-(6-chloro-1H-benzimidazol-2-yl)-4-(5-methyl-pyridin-2-yl)-3,4-dihydro-2H-benzo[1,4]oxazin-3-yl]-methanol], the IC50 in test [1] was 20 to 100 nM. In addition, the “I.A. (inhibitory activity), % inhibition rate of writhing” value in the test on ICR male mice was “+++ (51-80%)”.
The like results for `Cc1ccc(N2c3cccc(-c4nc5cc(Cl)c(Cl)cc5[nH]4)c3OC[C@@H]2CO)nc1` [Example 38, [(S)-8-(5,6-dichloro-1H-benzimidazol-2-yl)-4-(5-methyl-pyridin-2-yl)-3,4-dihydro-2H-benzo[1,4]oxazin-3-yl]-methanol] were, in that order, < 20 nM and “+++ (51-80%)”.
For `Cc1ccc(N2c3cccc(-c4nc5c(Cl)cc(C(F)(F)F)cc5[nH]4)c3OC[C@@H]2CO)nc1` [Example 39, [(S)-8-(4-chloro-6-trifluoromethyl-1H-benzimidazol-2-yl)-4-(5-methyl-pyridin-2-yl)-3,4-dihydro-2H-benzo[1,4]oxazin-3-yl]-methanol], the IC50 in test [1] is < 20 nM. For the same compound, in the test with ICR male mice, the “I.A. (inhibitory activity), % inhibition rate of writhing” value is “+++ (51-80%)”.
For `Cc1ccc(N2c3cccc(-c4nc5c(C(F)(F)F)cc(C(F)(F)F)cc5[nH]4)c3OC[C@@H]2CO)nc1` [Example 40, [(S)-8-(4,6-bis-trifluoromethyl-1H-benzimidazol-2-yl)-4-(5-methyl-pyridin-2-yl)-3,4-dihydro-2H-benzo[1,4]oxazin-3-yl]-methanol] the same measures were 20 to 100 nM and “++++ (>80%)”.
The like results for `Cc1ccc(N2c3cccc(-c4nc5c(Br)cc(C(F)(F)F)cc5[nH]4)c3OC[C@@H]2CO)nc1` [Example 41, [(S)-8-(4-bromo-6-trifluoromethyl-1H-benzimidazol-2-yl)-4-(5-methyl-pyridin-2-yl)-3,4-dihydro-2H-benzo[1,4]oxazin-3-yl]-methanol] were, in that order, < 20 nM and “++ (20˜50%)”.
For `Cc1ccc(N2c3cccc(-c4nc5c(Br)cc(Br)cc5[nH]4)c3OC[C@@H]2CO)nc1` [Example 42, [(S)-8-(4,6-dibromo-1H-benzimidazol-2-yl)-4-(5-methyl-pyridin-2-yl)-3,4-dihydro-2H-benzo[1,4]oxazin-3-yl]-methanol] the same measures were 20 to 100 nM and “+++ (51-80%)”.
Take `Cc1ccc(N2c3cccc(-c4nc5c(F)cc(Br)cc5[nH]4)c3OC[C@@H]2CO)nc1` [Example 43, [(S)-8-(6-bromo-4-fluoro-1H-benzimidazol-2-yl)-4-(5-methyl-pyridin-2-yl)-3,4-dihydro-2H-benzo[1,4]oxazin-3-yl]-methanol]: in test [1], the IC50 is < 20 nM. Further, the “I.A. (inhibitory activity), % inhibition rate of writhing” value with ICR male mice was “++ (20˜50%)”.
Turning to `Cc1ccc(N2c3cccc(-c4nc5cc(F)c(F)cc5[nH]4)c3OC[C@@H]2CO)nc1` [Example 44, [(S)-8-(5,6-difluoro-1H-benzimidazol-2-yl)-4-(5-methyl-pyridin-2-yl)-3,4-dihydro-2H-benzo[1,4]oxazin-3-yl]-methanol], the IC50 in test [1] was < 20 nM. For the same compound, in the test with ICR male mice, the “I.A. (inhibitory activity), % inhibition rate of writhing” value was “++++ (>80%)”.
For `Cc1ccc(N2c3cccc(-c4nc5cc(F)c(Cl)cc5[nH]4)c3OC[C@@H]2CO)nc1` [Example 45, [(S)-8-(6-chloro-5-fluoro-1H-benzimidazol-2-yl)-4-(5-methyl-pyridin-2-yl)-3,4-dihydro-2H-benzo[1,4]oxazin-3-yl]-methanol] the same measures were < 20 nM and “+++ (51-80%)”.
The like results for `Cc1ccc(N2c3cccc(-c4nc5c(C)cc(Br)cc5[nH]4)c3OC[C@@H]2CO)nc1` [Example 46, [(S)-8-(6-bromo-4-methyl-1H-benzimidazol-2-yl)-4-(5-methyl-pyridin-2-yl)-3,4-dihydro-2H-benzo[1,4]oxazin-3-yl]-methanol] were, in that order, < 20 nM and “++ (20˜50%)”.
For `Cc1ccc(N2c3cccc(-c4nc5ccc(OC(F)(F)F)cc5[nH]4)c3OC[C@@H]2CO)nc1` [Example 47, [(S)-4-(5-methyl-pyridin-2-yl)-8-(6-trifluoromethoxy-1H-benzimidazol-2-yl)-3,4-dihydro-2H-benzo[1,4]oxazin-3-yl]-methanol] the same measures were < 20 nM and “++ (20˜50%)”.
In the case of `COc1ccc2nc(-c3cccc4c3OC[C@H](CO)N4c3ccc(C)cn3)[nH]c2c1` [Example 48, [(S)-8-(6-methoxy-1H-benzimidazol-2-yl)-4-(5-methyl-pyridin-2-yl)-3,4-dihydro-2H-benzo[1,4]oxazin-3-yl]-methanol], the IC50 in test [1] is 20 to 100 nM. Besides, the “I.A. (inhibitory activity), % inhibition rate of writhing” value with ICR male mice is reported as “++ (20˜50%)”.
Take `Cc1ccc(N2c3cccc(-c4nc5ccc(F)cc5[nH]4)c3OC[C@@H]2CO)nc1` [Example 49, [(S)-8-(6-fluoro-1H-benzimidazol-2-yl)-4-(5-methyl-pyridin-2-yl)-3,4-dihydro-2H-benzo[1,4]oxazin-3-yl]-methanol]: in test [1], the IC50 is < 20 nM. Besides, in the test on ICR male mice, the “I.A. (inhibitory activity), % inhibition rate of writhing” value was “+++ (51-80%)”.
With `Cc1ccc(N2c3cccc(-c4nc5c(C)cccc5[nH]4)c3OC[C@@H]2CO)nc1` [Example 50, [(S)-8-(4-methyl-1H-benzimidazol-2-yl)-4-(5-methyl-pyridine-2-yl)-3,4-dihydro-2H-benzo[1,4]oxazin-3-yl]-methanol], the IC50 in test [1] was < 20 nM. The “I.A. (inhibitory activity), % inhibition rate of writhing” value in the test with ICR male mice was “+ (<20%)”.
For `Cc1ccc(N2c3cccc(-c4nc5cc(C)ccc5[nH]4)c3OC[C@@H]2CO)nc1` [Example 51, [(S)-8-(5-methyl-1H-benzimidazol-2-yl)-4-(5-methyl-pyridin-2-yl)-3,4-dihydro-2H-benzo[1,4]oxazin-3-yl]-methanol] the same measures were < 20 nM and “+ (<20%)”.
